IC50 and DSF data for 18 molecules are collected here from patent US20260265244A1, “HETEROCYCLIC COMPOUNDS AS STING ANTAGONISTS” (Boehringer Ingelheim International GmbH, priority 2022, published 2026).

The target of one assay is T1, human STING WT (R232) (Homo sapiens, UniProt Q86WV6, H232R).
T1 construct: purchased Cisbio 64BDSTGPEG
Nature of the assay: Human STING HTRF binding assay (competitive, Cisbio 64BDSTGPEG). How it is done:
Binders to human STING WT (R232) were identified using a competitive HTRF assay format (Cisbio 64BDSTGPEG), which uses d2-labeled STING ligand, a 6His (SEQ ID NO: 2) tagged human STING protein, and an anti 6His (SEQ ID NO: 2) Cryptate-labeled antibody. Compounds compete with the STING ligand-d2 and thereby prevents FRET from occurring, which can be measured by an EnVision™ reader (PerkinElmer).
Assay method: Compounds were delivered as 10 mM DMSO solution, serially diluted by an Agilent Bravo Workstation and transferred to the 384 well assay plate (Perkin Elmer #6005359) using a Cybiwell dispenser. Typically, 8 concentrations were used with the highest concentration at 10 μM or 1 μM in the final assay volume followed by ~1:5 dilution steps. DMSO concentration was set to 1% in the final assay volume. The 384 well assay plate contained 20 test compounds and DMSO in column 23 and 24. A cGAMP standard dilution row was prepared according to the manufacturer and transferred to each assay plate. After transfer of compound solution or dilution buffer for negative (high) and positive (low) controls, 5 μl of the human STING protein (cyclic binding domain (residues 138-379) of the WT R232 human version, fused to a 6 His tag (SEQ ID NO: 2) at the Nter part; 1:50 dilution in detection buffer) were dispensed to all wells except of the positive control, which received detection buffer only. Plates were the centrifuged for 20 sec at 1000 rpm. After that, 10 μl of Anti-6His-Cryptate antibody/Sting ligand-d2 mix was added to all wells using a Multidrop combi dispenser, followed by another sec/1000 rpm centrifugation step. After an incubation of the plates for 180 min at room temperature, […] at […] (HTRF ratio) was measured using an Envison Reader (PerkinElmer).
Data evaluation and calculation: For data evaluation and calculation, HTRF ratios were calibrated using the cGAMP standard curve. After that, the measurement of the low control was set as 0% control and the measurement of the high control was set as 100% control. The IC50 values were calculated using the standard 4 parameter logistic regression formula. Calculation: [y=(a−d)/(1+(x/c)^b)+d], a=low value, d=high value; x=conc M; c=IC50 M; b=slope;
(In general: TR-FRET usually uses a lanthanide donor and a delayed reading to cut background.)

Assay [1] has as its target T2, cGAMP binding domain of wild-type (GRR) human STING, residues 155-341 (Homo sapiens, UniProt Q86WV6, H232R).
T2 construct: His-TEV-hSTING (WT); TEV protease cleavage site (N); made in house; host or cells: E. coli BL21 DE3
Nature of the assay: Increase of stability of STING protein against thermal denaturation, Differential Scanning Fluorimetry (DSF). In outline:
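3 µM His-tagged protein with 100 uM compound, 5×SYPRO Orange, 2% DMSO in 20 mM Tris, 150 mM NaCl, pH7.5; 15–95 °C ramp in 0.5 °C steps (15 s/cycle). Tm from Boltzmann fit of the dye melt curve, duplicates averaged, repeated if SD>1.5 °C; ΔTm = Tm with compound minus Tm of protein alone.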
On the technique in general: DSF heats the sample and reads unfolding from a dye or from intrinsic fluorescence.

T2 sequence (Q86WV6 with tags, fused parts or gaps H232R): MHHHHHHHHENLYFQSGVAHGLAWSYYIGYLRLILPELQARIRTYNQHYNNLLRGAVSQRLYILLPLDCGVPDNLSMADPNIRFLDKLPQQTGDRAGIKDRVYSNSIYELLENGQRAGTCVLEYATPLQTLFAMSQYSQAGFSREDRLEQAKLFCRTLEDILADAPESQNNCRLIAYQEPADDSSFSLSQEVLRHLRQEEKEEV
T1 sequence (Q86WV6 138-379 H232R): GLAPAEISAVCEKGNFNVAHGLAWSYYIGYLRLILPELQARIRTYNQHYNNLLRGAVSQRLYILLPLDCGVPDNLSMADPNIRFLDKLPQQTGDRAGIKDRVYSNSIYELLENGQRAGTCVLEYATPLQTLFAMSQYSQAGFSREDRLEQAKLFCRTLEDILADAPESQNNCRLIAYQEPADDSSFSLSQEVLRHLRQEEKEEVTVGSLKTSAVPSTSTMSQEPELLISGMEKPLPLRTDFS

As a reminder, the IC50 is the midpoint of a concentration-inhibition curve. Higher therefore signals a need for much substance. In turn, `CC(C)n1cc2cc(-c3nc(-c4cccc5nn(C[C@H](O)c6ccccc6)cc45)c(C4CC4)n3C)c(C3CC3)nc2n1` [Example 33, (1R)-2-(4-{5-cyclopropyl-2-[6-cyclopropyl-2-(propan-2-yl)-2H-pyrazolo[3,4-b]pyridin-5-yl]-1-methyl-1H-imidazol-4-yl}-2H-indazol-2-yl)-1-phenylethan-1-ol] showed an IC50 on human STING WT (R232) of 6.1 nM. For the same molecule, the DSF in assay [1] is reported as 31 K.
For `CCCn1cc2cc(-c3nc(-c4cccc5nn(CC(F)(F)c6ccccc6)cc45)c(C4CC4)n3C)c(C3CC3)nc2n1` [Example 48, 4-(5-cyclopropyl-2-{6-cyclopropyl-2-propyl-2H-pyrazolo[3,4-b]pyridin-5-yl}-1-methyl-1H-imidazol-4-yl)-2-(2,2-difluoro-2-phenylethyl)-2H-indazole] the same measures were 22.7 nM and 31 K.
Molecule `Cc1c(C(C)C)c(-c2cccc3nn(C[C@H](O)c4ccccc4)cc23)nn1-c1cc2cn(C)nc2nc1OC(C)C` [Example 23, (1R)-2-(4-{5-methyl-1-[2-methyl-6-(propan-2-yloxy)-2H-pyrazolo[3,4-b]pyridin-5-yl]-4-(propan-2-yl)-1H-pyrazol-3-yl}-2H-indazol-2-yl)-1-phenylethan-1-ol] had a half-maximal inhibitory concentration (IC50) at human STING WT (R232) of 18.8 nM. The molecule further yielded a DSF in assay [1] of 25 K.
`Cc1nc2nn(C)cc2cc1-n1nc(-c2cccc3nn(C[C@H](OCCCCO)c4ccccc4)cc23)c(C(C)C)c1C` [Example 66, 4-[(1R)-2-[4-(1-{2,6-dimethyl-2H-pyrazolo[3,4-b]pyridin-5-yl}-5-methyl-4-(propan-2-yl)-1H-pyrazol-3-yl)-2H-indazol-2-yl]-1-phenylethoxy]butan-1-ol] had an IC50 at human STING WT (R232) of 8 nM. Further, the DSF in assay [1] came out at 23 K.
Turning to `Cc1c(C(C)C)c(-c2cccc3nn(C[C@H](O)c4ccccc4)cc23)nn1-c1cc2cn(C)nc2nc1C1(F)CC1` [Example 51, (1R)-2-(4-{1-[6-(1-fluorocyclopropyl)-2-methyl-2H-pyrazolo[3,4-b]pyridin-5-yl]-5-methyl-4-(propan-2-yl)-1H-pyrazol-3-yl}-2H-indazol-2-yl)-1-phenylethan-1-ol], the IC50 on human STING WT (R232) turned out to be 16.8 nM. The molecule also showed a DSF in assay [1] of 26 K.
Consider `Cc1nc2nn(C)cc2cc1-n1nc(-c2cccc3nn(C[C@H](O)c4ccccc4)cc23)c(C(C)C)c1C` [Example 102, (1R)-2-[4-(1-{2,6-Dimethyl-2H-pyrazolo[3,4-b]pyridin-5-yl}-5-methyl-4-(propan-2-yl)-1H-pyrazol-3-yl)-2H-indazol-2-yl]-1-phenylethan-1-ol], for which the IC50 on human STING WT (R232) is 3.6 nM. This molecule showed a DSF in assay [1] of 28 K.
Molecule `Cc1ccc([C@@H](O)Cn2cc3c(-c4nc(-c5cc6cn(C)nc6nc5C(C)C)n(C)c4C4CC4)cccc3n2)cc1` [Example 25, (1R)-2-(4-{5-cyclopropyl-1-methyl-2-[2-methyl-6-(propan-2-yl)-2H-pyrazolo[3,4-b]pyridin-5-yl]-1H-imidazol-4-yl}-2H-indazol-2-yl)-1-(4-methylphenyl)ethan-1-ol] registered a half-maximal inhibitory concentration (IC50) on human STING WT (R232) of 18.1 nM. Moreover, the DSF in assay [1] amounted to 30 K.
As to `Cn1cc2cc(-c3nc(-c4cccc5nn(C[C@H](O)c6ccccc6)cc45)c(C4CC4)n3C)c(OC(F)F)cc2n1` [Example 34, (1R)-2-(4-{5-cyclopropyl-2-[6-(difluoromethoxy)-2-methyl-2H-indazol-5-yl]-1-methyl-1H-imidazol-4-yl}-2H-indazol-2-yl)-1-phenylethan-1-ol], on human STING WT (R232), the concentration for half-maximal inhibition (IC50) stood at 7.1 nM. In assay [1], this molecule returned a DSF of 29 K.
For `Cc1nc2nn(CCCN3CCCC3=O)cc2cc1-n1nc(-c2cccc3nn(C[C@H](O)c4ccccc4)cc23)c(C(C)C)c1C` [Example 21, 1-{3-[5-(3-{2-[(2R)-2-hydroxy-2-phenylethyl]-2H-indazol-4-yl}-5-methyl-4-(propan-2-yl)-1H-pyrazol-1-yl)-6-methyl-2H-pyrazolo[3,4-b]pyridin-2-yl]propyl}pyrrolidin-2-one] the same measures were 4.9 nM and 30 K.
For the molecule `Cc1nc2nn(CCCO)cc2cc1-n1nc(-c2cccc3nn(C[C@H](O)c4ccccc4)cc23)c(C(C)C)c1C` [Example 32, 3-[5-(3-{2-[(2R)-2-hydroxy-2-phenylethyl]-2H-indazol-4-yl}-5-methyl-4-(propan-2-yl)-1H-pyrazol-1-yl)-6-methyl-2H-pyrazolo[3,4-b]pyridin-2-yl]propan-1-ol], the concentration for half-maximal inhibition (IC50) on human STING WT (R232) was determined as 8.6 nM. This molecule gave a DSF in assay [1] of 28 K.
As for `Cc1nc2cc(C)c(-n3nc(-c4cccc5nn(C[C@H](O)c6ccccc6)cc45)c(C(C)C)c3C)cc2[nH]1` [Example 105, (1R)-2-{4-[1-(2,5-dimethyl-1H-1,3-benzodiazol-6-yl)-5-methyl-4-(propan-2-yl)-1H-pyrazol-3-yl]-2H-indazol-2-yl}-1-phenylethan-1-ol], the IC50 on human STING WT (R232) stood at 78.1 nM. Further, the DSF in assay [1] turned out to be 24 K.
At human STING WT (R232), `Cn1cc2cc(-c3nc(-c4cccc5nn(C[C@H](O)c6ccccc6)cc45)c(C4CC4)n3C)c(C3CC3(F)F)nc2n1` (stereo partly drawn) [Example 110, (1R)-2-(4-{5-cyclopropyl-2-[6-(2,2-difluorocyclopropyl)-2-methyl-2H-pyrazolo[3,4-b]pyridin-5-yl]-1-methyl-1H-imidazol-4-yl}-2H-indazol-2-yl)-1-phenylethan-1-ol] had an IC50 of 8.3 nM. For the same molecule, the DSF in assay [1] was determined as 29 K.
As to `Cn1c(-c2cc3cn(CCN4CCOCC4)nc3nc2C2CC2)nc(-c2cccc3nn(C[C@H](O)c4ccccc4)cc23)c1C1CC1` [Example 10, (1R)-2-[4-(5-cyclopropyl-2-{6-cyclopropyl-2-[2-(morpholin-4-yl)ethyl]-2H-pyrazolo[3,4-b]pyridin-5-yl}-1-methyl-1H-imidazol-4-yl)-2H-indazol-2-yl]-1-phenylethan-1-ol], at human STING WT (R232), the IC50 turned out to be 9.3 nM. In addition, the DSF in assay [1] was 30 K.
`Cc1c(C(C)C)c(-c2cccc3nn(C[C@H](O)c4ccccc4)cc23)nn1-c1cc2cn(C)nc2nc1C1CCCO1` (stereo partly drawn) [Example 13, (1R)-2-(4-{5-methyl-1-[2-methyl-6-(oxolan-2-yl)-2H-pyrazolo[3,4-b]pyridin-5-yl]-4-(propan-2-yl)-1H-pyrazol-3-yl}-2H-indazol-2-yl)-1-phenylethan-1-ol] registered a half-maximal inhibitory concentration (IC50) on human STING WT (R232) of 17.5 nM. For the same molecule, the DSF in assay [1] amounted to 30 K.
For `Cc1c(C(C)C)c(-c2cccc3nn(C[C@H](O)c4ccccc4)cc23)nn1-c1cc2cn(C)nc2nc1C1CCOC1` (stereo partly drawn) [Example 47, (1R)-2-(4-{5-methyl-1-[2-methyl-6-(oxolan-3-yl)-2H-pyrazolo[3,4-b]pyridin-5-yl]-4-(propan-2-yl)-1H-pyrazol-3-yl}-2H-indazol-2-yl)-1-phenylethan-1-ol], in that order: 11.9 nM and 30 K.
Consider `Cc1nc2nn(C)cc2cc1-n1nc(-c2cccc3nn(C[C@H](O)c4ccc(F)c(F)c4)cc23)c(C(C)C)c1C` [Example 44, (1R)-1-(3,4-difluorophenyl)-2-[4-(1-{2,6-dimethyl-2H-pyrazolo[3,4-b]pyridin-5-yl}-5-methyl-4-(propan-2-yl)-1H-pyrazol-3-yl)-2H-indazol-2-yl]ethan-1-ol], for which the IC50 on human STING WT (R232) amounted to 16.9 nM. In assay [1], this molecule displayed a DSF of 26 K.
On human STING WT (R232), `CNCc1nc2nn(C)cc2cc1-n1nc(-c2cccc3nn(C[C@H](O)c4ccccc4)cc23)c(C(C)C)c1C` [Example 42, (1R)-2-[4-(5-methyl-1-{2-methyl-6-[(methylamino)methyl]-2H-pyrazolo[3,4-b]pyridin-5-yl}-4-(propan-2-yl)-1H-pyrazol-3-yl)-2H-indazol-2-yl]-1-phenylethan-1-ol] registered a 50% inhibitory concentration (IC50) of 16.7 nM. Further, the DSF in assay [1] is listed as 26 K.
For the molecule `Cc1nc2nn(CCN3CCOCC3)cc2cc1-n1nc(-c2cccc3nn(C[C@H](O)c4ccccc4)cc23)c(C(C)C)c1C` [Example 1, (1R)-2-[4-(5-methyl-1-{6-methyl-2-[2-(morpholin-4-yl)ethyl]-2H-pyrazolo[3,4-b]pyridin-5-yl}-4-(propan-2-yl)-1H-pyrazol-3-yl)-2H-indazol-2-yl]-1-phenylethan-1-ol], the IC50 on human STING WT (R232) stood at 12.1 nM. Moreover, the DSF in assay [1] was determined as 26 K.
